Legend:
human 5-HT7b receptor = target: T1, human 5-HT7b receptor (Homo sapiens, UniProt P34969); experiment: GPCR radioligand binding assay, [3H]-5-CT displacement, HEK293 membranes; conditions: for 5-HT7 % Inhibition by plate position: 10 µM; for %inh 5-HT7 exp_1: replicate exp_1; for %inh 5-HT7 exp_2: replicate exp_2; for %inh 5-HT7 average: average of exp_1 and exp_2
T1 construct: expressed in transfected cells

human 5-HT1A receptor = target: T2, human 5-HT1A receptor (Homo sapiens, UniProt P08908); experiment: GPCR radioligand binding assay, [3H]-8-OH-DPAT displacement, HEK293 membranes; conditions: for 5-HT1A % Inhibition by plate position: 10 µM; for %inh 5-HT1A average: average of exp_1 and exp_2; for %inh 5-HT1A exp_1: replicate exp_1; for %inh 5-HT1A exp_2: replicate exp_2; for %inh 5-HT1A corrected*: average, values below 0 and above 100% were set as 0 and 100
T2 construct: expressed in transfected cells
T2 sequence (P08908 1-422): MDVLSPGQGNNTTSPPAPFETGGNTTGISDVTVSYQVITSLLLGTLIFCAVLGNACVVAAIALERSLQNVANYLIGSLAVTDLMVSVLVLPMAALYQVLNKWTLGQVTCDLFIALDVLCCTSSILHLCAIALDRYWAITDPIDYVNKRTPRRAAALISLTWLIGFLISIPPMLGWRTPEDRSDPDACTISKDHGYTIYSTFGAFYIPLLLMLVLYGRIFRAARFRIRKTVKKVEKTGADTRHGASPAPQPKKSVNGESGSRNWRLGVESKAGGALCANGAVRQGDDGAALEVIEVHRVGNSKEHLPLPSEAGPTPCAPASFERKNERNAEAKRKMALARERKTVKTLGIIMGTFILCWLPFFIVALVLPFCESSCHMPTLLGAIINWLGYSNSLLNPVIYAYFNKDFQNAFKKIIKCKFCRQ

human 5-HT6 receptor = target: T3, human 5-HT6 receptor (Homo sapiens, UniProt P50406); experiment: GPCR radioligand binding assay, [3H]-LSD displacement, HEK293 membranes; conditions: for 5-HT6 % Inhibition by plate position: 10 µM; for %inh 5-HT6 average: average of exp_1 and exp_2; for %inh 5-HT6 corrected*: average, values below 0 and above 100% were set as 0 and 100; for %inh 5-HT6 exp_1: replicate exp_1; for %inh 5-HT6 exp_2: replicate exp_2
T3 construct: expressed in transfected cells
T3 sequence (P50406 whole entry): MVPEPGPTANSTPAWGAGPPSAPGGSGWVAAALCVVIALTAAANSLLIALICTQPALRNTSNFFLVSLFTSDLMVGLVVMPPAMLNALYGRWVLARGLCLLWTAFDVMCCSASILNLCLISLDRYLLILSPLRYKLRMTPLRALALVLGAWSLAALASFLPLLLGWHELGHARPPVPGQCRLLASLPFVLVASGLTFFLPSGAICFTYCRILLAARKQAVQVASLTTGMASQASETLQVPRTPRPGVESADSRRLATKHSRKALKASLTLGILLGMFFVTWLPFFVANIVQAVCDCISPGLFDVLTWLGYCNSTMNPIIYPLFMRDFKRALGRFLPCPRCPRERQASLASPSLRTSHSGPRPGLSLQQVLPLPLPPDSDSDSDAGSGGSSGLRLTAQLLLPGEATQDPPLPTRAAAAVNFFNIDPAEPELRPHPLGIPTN

T1 sequence (P34969 1-432): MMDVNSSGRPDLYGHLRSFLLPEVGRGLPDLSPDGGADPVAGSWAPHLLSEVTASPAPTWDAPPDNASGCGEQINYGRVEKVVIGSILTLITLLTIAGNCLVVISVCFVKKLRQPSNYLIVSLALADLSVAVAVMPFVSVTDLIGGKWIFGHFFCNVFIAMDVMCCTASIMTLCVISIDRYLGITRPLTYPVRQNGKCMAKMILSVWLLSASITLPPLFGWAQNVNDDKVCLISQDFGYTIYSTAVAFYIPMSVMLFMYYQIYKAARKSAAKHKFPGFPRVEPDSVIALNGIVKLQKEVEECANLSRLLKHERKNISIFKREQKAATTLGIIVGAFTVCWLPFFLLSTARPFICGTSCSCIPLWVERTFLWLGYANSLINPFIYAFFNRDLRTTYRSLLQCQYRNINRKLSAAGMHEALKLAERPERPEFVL

| SMILES | 5-HT7 % Inhibition by plate position (human 5-HT7b receptor) | %inh 5-HT7 exp_1 (human 5-HT7b receptor) | %inh 5-HT7 exp_2 (human 5-HT7b receptor) | 5-HT1A % Inhibition by plate position (human 5-HT1A receptor) | %inh 5-HT1A average (human 5-HT1A receptor) | %inh 5-HT1A exp_1 (human 5-HT1A receptor) | %inh 5-HT1A exp_2 (human 5-HT1A receptor) | 5-HT6 % Inhibition by plate position (human 5-HT6 receptor) | %inh 5-HT6 average (human 5-HT6 receptor) | %inh 5-HT6 corrected* (human 5-HT6 receptor) | %inh 5-HT6 exp_1 (human 5-HT6 receptor) | %inh 5-HT6 exp_2 (human 5-HT6 receptor) | %inh 5-HT7 average (human 5-HT7b receptor) | %inh 5-HT1A corrected* (human 5-HT1A receptor) |
| --- | --- | --- | --- | --- | --- | --- | --- | --- | --- | --- | --- | --- | --- | --- |
| COc1ccccc1N1CCNCC1 [A10] | 72% | 67% | 76% | 100% | 102% | 101% | 103% | 69% | 69% | 69% | 80% | 58% | – | – |
| c1ccc2oc(C3CCCNC3)nc2c1 (stereo not shown) [D10] | 0% | -4% | 3.22% | – | 78% | 77% | 80% | 25% | 25% | 25% | 22% | 28% | -0.305% | 78% |
| Cc1cc(-c2ccccc2)n[nH]1 [A8] | 34% | 37% | 32% | – | 9% | 9% | 9% | 48% | 48% | 48% | 44% | 52% | – | 9% |
| Cc1ccc(-c2ccc(O)cc2)cc1 [D7] | 0% | 2.16% | -17% | 0% | -20% | -25% | -14% | 45% | 45% | 45% | 52% | 38% | -7.45% | – |
| Oc1ccc(C2CCNCC2)cc1 [E11] | 11% | 10% | 12% | – | 5.37% | 3% | 8% | 43% | 43% | 43% | 44% | 42% | – | 5.37% |
| Brc1ccc(-c2ccon2)cc1 [A9] | 5.57% | 1.16% | 10% | – | 3.49% | 4% | 3% | 34% | 34% | 34% | 40% | 29% | – | 3.49% |
| Cn1c(CO)nc2ccccc21 [G2] | 5% | 10% | 0.167% | 0% | -5% | 12% | -22% | 37% | 37% | 37% | 37% | 38% | – | – |
| O=C1CSC(Nc2ccc(F)cc2)=N1 [H10] | 0% | 3.25% | -10% | – | 12% | 10% | 15% | 36% | 36% | 36% | 37% | 35% | -3.55% | 12% |
| O=C(Nc1ccccc1)C1CC1 [F6] | 0% | -1.55% | -4% | – | 12% | 10% | 14% | 41% | 41% | 41% | 40% | 42% | -2.69% | 12% |
| c1ccc2c(N3CCNCC3)ccnc2c1 [C4] | 16% | 17% | 15% | – | 81% | 78% | 83% | 72% | 72% | 72% | 71% | 72% | – | 81% |
| O=C(O)CC1CCC(=O)N1 (stereo not shown) [H2] | 7% | 4.76% | 9% | 0% | -0.447% | -9% | 8.47% | 16% | 16% | 16% | 18% | 15% | – | – |
| O=C1CNCCN1c1ccccc1 [B2] | 0% | 14% | -19% | – | 4.62% | 9% | 0% | 47% | 47% | 47% | 50% | 44% | -2.46% | 4.62% |
| Cc1nc(-c2ccccc2)cs1 [A7] | 0% | -4% | 3.71% | 0% | -4.34% | -13% | 4% | 50% | 50% | 50% | 50% | 50% | -0.168% | – |
| CCCN1C(=O)CC(=O)NC1=S [D5] | 10% | 13% | 6% | 0% | -8.49% | -9% | -8% | 49% | 49% | 49% | 57% | 41% | – | – |
| C1=C[C@H]2O[C@@H]1c1ccccc12 [C11] | 0% | -5.66% | -11% | 0% | -11% | -11% | -11% | 46% | 46% | 46% | 42% | 50% | -8% | – |
| O=C(c1ccncc1)N1CCNCC1 [E2] | 3.34% | 1.81% | 5% | – | 3.69% | 13% | -6% | 24% | 24% | 24% | 15% | 33% | – | 3.69% |
| CS(=O)(=O)c1ccc(N2CCNCC2)cc1 [B1] | 35% | 29% | 40% | – | 4.22% | 8.43% | 0% | 28% | 28% | 28% | 28% | 28% | – | 4.22% |
| Cn1nc(C(F)(F)F)cc1O [H6] | 9% | 4% | 14% | – | 21% | 21% | 21% | 0% | -24% | 0% | -16% | -31% | – | 21% |
| Cc1cc(N)no1 [B11] | 1.49% | -8% | 11% | 0% | -21% | -18% | -24% | 37% | 37% | 37% | 40% | 34% | – | – |
